Measurements as given in patent publication US6340594B1, “Production of desiccation-tolerant gymnosperm embryos” (CellFor, Inc., priority 1991, dated 2002).

Key:
Type in all cases: cell-based
[1] = system: white spruce somatic embryos; test: Lipid (TL, TAG) content and fatty acid composition of somatic embryos; settings: 7.5% PEG, 8 weeks; for Fatty acid composition of TAG (%) 18:2^b: FA col 7/9; for Fatty acid composition of TAG (%) ΣC-20, 22^c: FA col 9/9
Method: Experiments were set up to observe the effects of different culture conditions on somatic embryo lipid biosynthesis. […] Sigma, St Louis, USA). […] Somatic embryos were maintained on these media for 4 weeks in the dark prior to lipid analysis. […] The lipid contents of immature somatic embryos from suspension culture were also determined. Investigations were conducted to observe the effects of different ABA concentrations, in the presence of PEG, on lipid biosynthesis. […] Matured somatic embryos were transferred on their filter-paper supports to unsealed petri dishes which were then placed within the 81% r.h. desiccator. Total secondary desiccation treatment time was 2 weeks. […] Results were compared to those of somatic embryos matured under the same conditions but not further desiccated. The whole white spruce seeds, isolated zygotic embryos, somatic embryos from the various treatments, and regenerated plantlets and zygotic seedlings were counted, blotted dry, and fresh weights determined. The samples were then placed in an oven at 80° C. for 24 h and dry weights recorded. Lipids were extracted from fresh tissues by the hexane/isopropane method of Hara and Radin (1978), after first placing the samples in boiling isopropane for 10 min. TAGs were separated from total lipid extracts by thin layer chromatography using […] 60 plates (Mandel Scientific Co., Toronto, Canada). […] TAGs were identified using authentic standards and scraped from the plates using a razor blade. Fatty acid methyl esters ([…] prepared from TAGs and total lipid extracts, as previously described (Pomeroy et al. 1991). […] Each lipid extract sample was divided into 2-3 replicates for analysis, and experiments were repeated three times. Results shown are means of one experiment.

[2] = system: white spruce somatic embryos; test: Molecular size threshold of solutes for promoting maturation; settings: 20 μM ABA; for Mature embryos per replicate (± SE): solute 7.5% added to 3% sucrose base, 9 weeks; for recovery of mature embryos: solute at 2.5 and 5% (w/v), 3% sucrose base
Method: In order to determine the effective molecular weight and size range of solutes that promote the maturation of immature white spruce somatic embryos, they were matured in half-strength LP maturation medium containing a range of different solutes of differing molecular weight. Five replicates were prepared per treatment, and treatments were repeated twice. […] The treatment time was 9 weeks. […] The somatic embryos remained wet throughout the maturation treatment which led to poorly formed embryos at low frequency. […] For all treatments, only normal looking cotyledonary stage opaque white embryos were scored and used for lipid analyses. Levels of lipid triacylglycerols (TAGs) were analyzed as described later and results provided are means of two replicates.

[3] = system: white spruce somatic embryos; test: Somatic embryo maturation with PEG-4000 (maturation frequency); settings: preliminary experiments
Method: Maturation of somatic embryos was carried out using methods modified from Attree et al. (1990). Suspension cultured somatic embryos were washed and resuspended (20% w/v) in half-strength PGR-free BM containing 3% sucrose, to remove the previous PGRs, then 0.75 ml aliquots were pipetted onto filter paper supports (Whatman no. 2) on the surface of maturation medium. The supports facilitated subsequent transfers to fresh media. To determine the mean number of somatic embryos plated, 10 μl samples of the 20% suspension were stained with acetocarmine (B.D.H.) and counted (repeated 15 times). The plated somatic embryos were maintained on the maturation medium for 4 weeks in the dark. To test the effect of increased osmoticum, the following concentrations of PEG-4000 (Fluka AG) were included in the maturation medium; 0, 2.5, 5.0, 7.5 and 10% (w/v) (25 replicates per treatment). Maturation frequencies per treatment were calculated as the percent mean number of somatic embryos that matured to normal-looking cotyledonary embryos. Maturation frequency results are shown in FIG. 1 (±confidence limits, P=0.05)
The application of PEG-4000 in the presence of 16 μM ABA for 28 d promoted the maturation of white spruce somatic embryos (FIG. 1). The mean number of immature somatic embryos plated per replicate was 560, and maturation results are based upon a total of 4087 mature embryos recovered. […]

[4] = ABA 12 μM, desiccated (D) 2 weeks 81% r.h.
[5] = ABA 16 μM, desiccated (D) 2 weeks 81% r.h.
[6] = ABA 24 μM, desiccated (D) 2 weeks 81% r.h.
[7] = ABA 32 μM, desiccated (D) 2 weeks 81% r.h.

CC1=CC(=O)CC(C)(C)C1(O)/C=C/C(C)=C\C(=O)O (racemic) [ABA, abscisic acid]
TAG % d wt [1, 4]: 26 % d wt | TAG μg (embryo)^−1 [1, 4]: 186.6 μg (embryo)^−1 | TAG/TL % [1, 4]: 85% | TL % d wt [1, 4]: 31 % d wt | TL μg (embryo)^−1 [1, 4]: 220 μg (embryo)^−1 | TAG % d wt ([1]; ABA 12 μM, hydrated (H)): 14 % d wt | TAG μg (embryo)^−1 ([1]; ABA 12 μM, hydrated (H)): 116 μg (embryo)^−1 | TAG/TL % ([1]; ABA 12 μM, hydrated (H)): 79% | TL % d wt ([1]; ABA 12 μM, hydrated (H)): 18 % d wt | TL μg (embryo)^−1 ([1]; ABA 12 μM, hydrated (H)): 146 μg (embryo)^−1 | TAG % d wt [1, 5]: 28 % d wt | TAG μg (embryo)^−1 [1, 5]: 214 μg (embryo)^−1 | TAG/TL % [1, 5]: 82% | TL % d wt [1, 5]: 35 % d wt | TL μg (embryo)^−1 [1, 5]: 260 μg (embryo)^−1 | TAG % d wt ([1]; ABA 16 μM, hydrated (H)): 17 % d wt | TAG μg (embryo)^−1 ([1]; ABA 16 μM, hydrated (H)): 143 μg (embryo)^−1 | TAG/TL % ([1]; ABA 16 μM, hydrated (H)): 80% | TL % d wt ([1]; ABA 16 μM, hydrated (H)): 22 % d wt | TL μg (embryo)^−1 ([1]; ABA 16 μM, hydrated (H)): 179 μg (embryo)^−1 | TAG % d wt [1, 6]: 30 % d wt | TAG μg (embryo)^−1 [1, 6]: 186.2 μg (embryo)^−1 | TAG/TL % [1, 6]: 80% | TL % d wt [1, 6]: 37 % d wt | TL μg (embryo)^−1 [1, 6]: 232.5 μg (embryo)^−1 | TAG % d wt ([1]; ABA 24 μM, hydrated (H)): 20 % d wt | TAG μg (embryo)^−1 ([1]; ABA 24 μM, hydrated (H)): 131 μg (embryo)^−1 | TAG/TL % ([1]; ABA 24 μM, hydrated (H)): 77% | TL % d wt ([1]; ABA 24 μM, hydrated (H)): 26 % d wt | TL μg (embryo)^−1 ([1]; ABA 24 μM, hydrated (H)): 170 μg (embryo)^−1 | TAG % d wt [1, 7]: 20 % d wt | TAG μg (embryo)^−1 [1, 7]: 170 μg (embryo)^−1 | TAG/TL % [1, 7]: 64% | TL % d wt [1, 7]: 31 % d wt | TL μg (embryo)^−1 [1, 7]: 264 μg (embryo)^−1 | TAG % d wt ([1]; ABA 32 μM, hydrated (H)): 17 % d wt | TAG μg (embryo)^−1 ([1]; ABA 32 μM, hydrated (H)): 130 μg (embryo)^−1 | TAG/TL % ([1]; ABA 32 μM, hydrated (H)): 67% | TL % d wt ([1]; ABA 32 μM, hydrated (H)): 26 % d wt | TL μg (embryo)^−1 ([1]; ABA 32 μM, hydrated (H)): 193 μg (embryo)^−1 | Fatty acid composition of TAG (%) 18:2^b ([1]; ABA 12 μM, D (81% r.h.)): 15.4% | Fatty acid composition of TAG (%) 18:2^b ([1]; ABA 12 μM, H): 13.2% | Fatty acid composition of TAG (%) 18:2^b ([1]; ABA 16 μM, D (81% r.h.)): 15.4% | Fatty acid composition of TAG (%) 18:2^b ([1]; ABA 16 μM, H): 13.5% | Fatty acid composition of TAG (%) 18:2^b ([1]; ABA 24 μM, D (81% r.h.)): 15% | Fatty acid composition of TAG (%) 18:2^b ([1]; ABA 24 μM, H): 14.7% | Fatty acid composition of TAG (%) 18:2^b ([1]; ABA 32 μM, D (81% r.h.)): 14.9% | Fatty acid composition of TAG (%) 18:2^b ([1]; ABA 32 μM, H): 14.6% | Fatty acid composition of TAG (%) ΣC-20, 22^c ([1]; ABA 12 μM, D (81% r.h.)): 1.4% | Fatty acid composition of TAG (%) ΣC-20, 22^c ([1]; ABA 12 μM, H): 1.4% | Fatty acid composition of TAG (%) ΣC-20, 22^c ([1]; ABA 16 μM, D (81% r.h.)): 1.5% | Fatty acid composition of TAG (%) ΣC-20, 22^c ([1]; ABA 16 μM, H): 1% | Fatty acid composition of TAG (%) ΣC-20, 22^c ([1]; ABA 24 μM, D (81% r.h.)): 1.5% | Fatty acid composition of TAG (%) ΣC-20, 22^c ([1]; ABA 24 μM, H): 1.2% | Fatty acid composition of TAG (%) ΣC-20, 22^c ([1]; ABA 32 μM, D (81% r.h.)): 2.5% | Fatty acid composition of TAG (%) ΣC-20, 22^c ([1]; ABA 32 μM, H): 1.6%

OC[C@@H](O)[C@@H](O)[C@H](O)[C@H](O)CO [Mannitol, mannitol]
Mature embryos per replicate (± SE) [2]: 0 | recovery of mature embryos [2]: did not result in recovery of any mature embryos

OC[C@H]1O[C@@](CO)(O[C@H]2O[C@H](CO)[C@@H](O)[C@H](O)[C@H]2O)[C@@H](O)[C@@H]1O [Sucrose, sucrose]
maturation frequencies, visual comparison ([3]; 6% sucrose): lower maturation frequencies | growth, visual comparison ([3]; 9% sucrose): no growth | Mature embryos per replicate (± SE) [2]: 0 | recovery of mature embryos [2]: did not result in recovery of any mature embryos
